# Reference: patent publication US8653071B2, “α4β2 neuronal nicotinic acetylcholine receptor ligands” (Suven Life Sciences Limited, priority 2009, dated 2014)
# Key:
# Assay type in all cases: in vivo
# [1] = Rodent pharmacokinetic study; conditions: Wistar, in vivo, Wister rat/Male
# Method in brief: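 Rats, fasted overnight, received NCE orally (15 or 5 mg/kg) and intravenously (5 mg/kg) on day 0 and day 2. Jugular blood sampled pre-dose to 24 h (n=3); plasma NCE measured by LC-MS/MS. Cmax, Tmax, AUCt, T1/2 and bioavailability derived by non-compartmental analysis.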
# Male Sprague Dawley rats = test: DRL-72s model of animal depression; conditions: p.o.; rat
# Description: The antidepressant properties of compounds of this invention were evaluated using a model of animal depression: the DRL-72s model. Male Sprague Dawley rats were used as experimental animals. Rats are trained to lever press for a 4″ access to 0.025 ml of water for each correct response during daily 60 minute sessions. All testing takes place on weekdays only. At the beginning of each session, the house light is illuminated and remains lit until the session ends. No other stimuli are presented during testing. After successful lever press training, rats are then required to respond under a DRL-24 second schedule, where only lever presses that are separated by 24 seconds are reinforced. Upon stable responding on a DRL-24 second schedule (5-10 sessions), rats are trained on a DRL-72 second schedule until responding stabilizes at approximately 15% efficiency (approx 25-35 sessions). Specifically, rats receive a reinforcer for each response that is emitted at least 72 seconds after the previous response (IRT). […] Efficiency is recorded as number of reinforced responses÷total number of responses. After stable baseline responding is achieved, defined as responding for 4 consecutive sessions with no more than 10% variability, animals begin drug testing. Animals receive drug no more than 1× per week.
# Male Wister rats = test: Reversal of formalin induced nociception; conditions: p.o.; rat
# Description: Reversal of Formalin Induced Nociception
# The anti-nociceptive properties of compounds of this invention were evaluated using a model of pain: the Formalin Induced Nociception model. Male Wister rats (230-280 grams) obtained from N. I. N. (National Institute of Nutrition, Hyderabad, India) was used as experimental animals.
# Rats were habituated for 20 minutes in the arena before the experiment was started. Duration of licks, bites and flinches were noted from 0-10 minutes and 20-35 minutes after administration of formalin, subplantar into the right hind paw at concentrations of 5% v/v. 50 μL of water for injection was injected into the right hind paw of the rats of the sham group. Compounds of this invention were administered orally prior to formalin administration.
smiles,measurement,setting,value
"CNCC1CC2CC2N1c1cccnc1.Cl (centres unmarked) [Example 4, N-[2-(Pyridin-3-yl)-2-azabicyclo[3.1.0]hex-3-ylmethyl]methylamine hydrochloride]",AUC(0-t),"[1]; 5 mg/kg, Intravenous",1670 ± 154 ng·h/mL
same,Cmax,"[1]; 5 mg/kg, Intravenous",956 ± 164 ng/mL
same,Tmax,"[1]; 5 mg/kg, Intravenous",0.08 h
same,half-life,"[1]; 5 mg/kg, Intravenous",5.82 ± 0.53 h
same,bioavailability,[1]; 15 mg/kg Per-Oral vs 5 mg/kg Intravenous,105 ± 9%
same,AUC(0-t),"[1]; 15 mg/kg, Per-Oral",5280 ± 652 ng·h/mL
same,Cmax,"[1]; 15 mg/kg, Per-Oral",1560 ± 294 ng/mL
same,Tmax,"[1]; 15 mg/kg, Per-Oral",0.33 ± 0.14 h
same,half-life,"[1]; 15 mg/kg, Per-Oral",4.48 ± 0.76 h
same,Dose (DRL-72s),Male Sprague Dawley rats,"≧10 mg/kg, p.o."
same,Dose (reversal of formalin induced nociception),Male Wister rats,"≦10 mg/kg, p.o."
